What all share (details): Stomach
For assay [1], the species on record is Oryctolagus cuniculus. The experiment in a line: Activation of potassium channel in noradrenaline-precontracted New Zealand Oryctolagus cuniculus (rabbit) gastric fundus smooth muscle strips assessed as muscle relaxant activity. In kind it is tissue-based.
The subject of assay [2] is Gastric fundus smooth muscle. Briefly: Myorelaxant activity in noradrenaline-precontracted New Zealand Oryctolagus cuniculus (rabbit) gastric fundus smooth muscle strips in presence of large-conductance Ca2+-activated K+ channel blocker iberiotoxin. It is filed as functional.
For assay [3], the species on record is Oryctolagus cuniculus. The experiment in a line: Activation of potassium channel in noradrenaline-precontracted New Zealand Oryctolagus cuniculus (rabbit) gastric fundus smooth muscle strips assessed as muscle relaxant activity relative to control. In kind it is tissue-based.
Assay [4] deals with Gastric fundus smooth muscle. Briefly: Myorelaxant activity in noradrenaline-precontracted New Zealand Oryctolagus cuniculus (rabbit) gastric fundus smooth muscle strips in presence of KV blocker 4-aminopyridine.
Assay [5] deals with Gastric fundus smooth muscle. The experiment in a line: Myorelaxant activity in noradrenaline-precontracted New Zealand Oryctolagus cuniculus (rabbit) gastric fundus smooth muscle strips in presence of Ca2+-activated K+ channel blocker TEA. It is filed as functional.
Assay [6] concerns Gastric fundus smooth muscle. The experiment in a line: Myorelaxant activity in noradrenaline-precontracted New Zealand Oryctolagus cuniculus (rabbit) gastric fundus smooth muscle strips in presence of small-conductance Ca2+-activated K+ channel blocker apamine. In kind it is functional.
For assay [7], the system named is Gastric fundus smooth muscle. Briefly: Myorelaxant activity in noradrenaline-precontracted New Zealand Oryctolagus cuniculus (rabbit) gastric fundus smooth muscle strips in presence of K-ATP channel blocker glibenclamide. In kind it is functional.

Activity calls are given as the source filed them. The rule behind the calls is not given here.

Experimental findings from ChEMBL document CHEMBL3046869, “Investigation of myorelaxant activity of 9-aryl-3,4,6,7-tetrahydroacridine-1,8-(2H,5H,9H,10H)-diones in isolated rabbit gastric fundus” (2012) are described below.

The term Emax denotes the greatest response seen or fitted, relative to the assay's reference.

For `CC1CC(=O)C2=C(C1)NC1=C(C(=O)CC(C)C1)C2c1ccccc1F` (configuration not stated), the pD2 entry in the assay listed under Oryctolagus cuniculus [1] is “inactive”. Also, the Emax result (in assay [2]; in the assay listed under Oryctolagus cuniculus [3]; in assay [4]; in assay [5]; in assay [6]; in assay [7]) was “inactive” throughout.
Take `CC(N/C(=N\C#N)Nc1ccncc1)C(C)(C)C` (configuration not stated): the pD2 in the assay listed under Oryctolagus cuniculus [1] worked out at 4.9. Also, in the assay listed under Oryctolagus cuniculus [3], the Emax turned out to be 73.5%.
Turning to `CC1CC(=O)C2=C(C1)NC1=C(C(=O)CC(C)C1)C2c1cccc([N+](=O)[O-])c1` (configuration not stated), the pD2 in the assay listed under Oryctolagus cuniculus [1] was found to be 4.57. The maximal response (Emax) was 54.4% in assay [2]; 62.1% in the assay listed under Oryctolagus cuniculus [3]; 54.1% in assay [4]; 54.6% in assay [5]; 35.3% in assay [6]; 51.8% in assay [7].
`CC1CC(=O)C2=C(C1)NC1=C(C(=O)CC(C)C1)C2c1ccc([N+](=O)[O-])cc1` (configuration not stated): in the assay filed under Oryctolagus cuniculus [1], the pD2 was determined as 4.66. Besides, the Emax came out at 82.5% in assay [2]; 53.9% in the assay filed under Oryctolagus cuniculus [3]; 51.4% in assay [4]; 74.4% in assay [5]; 54.5% in assay [6]; 52% in assay [7].
As for `CC1CC(=O)C2=C(C1)NC1=C(C(=O)CC(C)C1)C2c1ccc(C(F)(F)F)cc1` (configuration not stated), the pD2 in the assay listed under Oryctolagus cuniculus [1] was 4.68. The Emax is 43.3% in assay [2]; 33.8% in the assay filed under Oryctolagus cuniculus [3]; 14% in assay [4]; 35.1% in assay [5]; 26.7% in assay [6]; 43.8% in assay [7].
For `CC1CC(=O)C2=C(C1)NC1=C(C(=O)CC(C)C1)C2c1ccccc1C(F)(F)F` (configuration not stated), the pD2 entry in the assay filed under Oryctolagus cuniculus [1] was “inactive”. Further, the Emax result (in assay [2]; in the assay filed under Oryctolagus cuniculus [3]; in assay [4]; in assay [5]; in assay [6]; in assay [7]) was “inactive” each time.
`CC1CC(=O)C2=C(C1)NC1=C(C(=O)CC(C)C1)C2c1ccc(F)cc1` (configuration not stated): the pD2 in the assay filed under Oryctolagus cuniculus [1] turned out to be 4.6. Besides, the maximal response (Emax) in assay [2] came out at 39.1%; in the assay listed under Oryctolagus cuniculus [3] it was 37.2%; in assay [4] it was 21.8%; in assay [5] it was 18.8%; in assay [6], 39.3%; in assay [7], 46.7%.
For `CC1CC(=O)C2=C(C1)NC1=C(C(=O)CC(C)C1)C2c1ccc(C#N)cc1` (configuration not stated), the pD2 in the assay listed under Oryctolagus cuniculus [1] came to 4.57. The maximum response (Emax) in assay [2] worked out at 52%; in the assay filed under Oryctolagus cuniculus [3], 46%; in assay [4], 51.1%; in assay [5], 45.2%; in assay [6], 45.7%; in assay [7], 45.2%.
`CC1CC(=O)C2=C(C1)NC1=C(C(=O)CC(C)C1)C2c1ccccc1[N+](=O)[O-]` (configuration not stated): the pD2 result in the assay filed under Oryctolagus cuniculus [1] was “inactive”. Further, the Emax entry (in assay [2]; in the assay listed under Oryctolagus cuniculus [3]; in assay [4]; in assay [5]; in assay [6]; in assay [7]) was “inactive” each time.
As for `CC1CC(=O)C2=C(C1)NC1=C(C(=O)CC(C)C1)C2c1cccc(C#N)c1` (configuration not stated), in the assay filed under Oryctolagus cuniculus [1], the pD2 was 4.7. For the same compound, the Emax in assay [2] was 30.9%; in the assay listed under Oryctolagus cuniculus [3] it was 56%; in assay [4], 32.3%; in assay [5] it was 44.6%; in assay [6], 60.6%; in assay [7], 66%.
In the case of `CC1CC(=O)C2=C(C1)NC1=C(C(=O)CC(C)C1)C2c1cccc(C(F)(F)F)c1` (configuration not stated), in the assay filed under Oryctolagus cuniculus [1], the pD2 entry was “inactive”. Moreover, the Emax result (in assay [2]; in the assay filed under Oryctolagus cuniculus [3]; in assay [4]; in assay [5]; in assay [6]; in assay [7]) was “inactive” throughout.
